The target of assay [1] is T1, B-cell receptor CD22 (Homo sapiens, UniProt P20273).
T1 sequence (P20273 whole entry): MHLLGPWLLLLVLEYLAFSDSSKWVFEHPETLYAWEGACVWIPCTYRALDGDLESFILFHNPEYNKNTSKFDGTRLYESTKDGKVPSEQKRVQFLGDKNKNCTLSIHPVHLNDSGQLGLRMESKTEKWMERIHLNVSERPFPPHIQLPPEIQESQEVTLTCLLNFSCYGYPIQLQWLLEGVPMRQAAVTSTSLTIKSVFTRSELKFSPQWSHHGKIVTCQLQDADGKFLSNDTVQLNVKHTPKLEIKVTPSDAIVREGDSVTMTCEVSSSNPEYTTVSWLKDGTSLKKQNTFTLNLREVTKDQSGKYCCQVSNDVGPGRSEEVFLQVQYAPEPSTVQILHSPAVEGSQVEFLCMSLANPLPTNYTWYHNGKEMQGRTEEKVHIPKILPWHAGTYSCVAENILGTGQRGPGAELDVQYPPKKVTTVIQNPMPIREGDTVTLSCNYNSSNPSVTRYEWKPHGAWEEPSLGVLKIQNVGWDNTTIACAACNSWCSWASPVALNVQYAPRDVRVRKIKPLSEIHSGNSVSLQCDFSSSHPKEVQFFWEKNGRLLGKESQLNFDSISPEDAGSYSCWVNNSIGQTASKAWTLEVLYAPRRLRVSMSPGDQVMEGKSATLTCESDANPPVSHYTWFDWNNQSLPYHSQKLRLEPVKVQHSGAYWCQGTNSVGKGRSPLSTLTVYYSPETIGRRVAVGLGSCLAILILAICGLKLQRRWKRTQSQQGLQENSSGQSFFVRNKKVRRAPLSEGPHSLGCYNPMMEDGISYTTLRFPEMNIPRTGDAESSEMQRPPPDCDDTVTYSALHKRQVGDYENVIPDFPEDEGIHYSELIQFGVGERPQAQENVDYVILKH
As to the kind of experiment: Binding affinity to recombinant human CD22d1-3-Fc expressed in 293T cells by surface plasmon resonance assay. More on the design: species or system HEK293T.

For assay [2], the target named is T2, Myelin-associated glycoprotein (Homo sapiens, UniProt P20916).
T2 sequence (P20916 whole entry): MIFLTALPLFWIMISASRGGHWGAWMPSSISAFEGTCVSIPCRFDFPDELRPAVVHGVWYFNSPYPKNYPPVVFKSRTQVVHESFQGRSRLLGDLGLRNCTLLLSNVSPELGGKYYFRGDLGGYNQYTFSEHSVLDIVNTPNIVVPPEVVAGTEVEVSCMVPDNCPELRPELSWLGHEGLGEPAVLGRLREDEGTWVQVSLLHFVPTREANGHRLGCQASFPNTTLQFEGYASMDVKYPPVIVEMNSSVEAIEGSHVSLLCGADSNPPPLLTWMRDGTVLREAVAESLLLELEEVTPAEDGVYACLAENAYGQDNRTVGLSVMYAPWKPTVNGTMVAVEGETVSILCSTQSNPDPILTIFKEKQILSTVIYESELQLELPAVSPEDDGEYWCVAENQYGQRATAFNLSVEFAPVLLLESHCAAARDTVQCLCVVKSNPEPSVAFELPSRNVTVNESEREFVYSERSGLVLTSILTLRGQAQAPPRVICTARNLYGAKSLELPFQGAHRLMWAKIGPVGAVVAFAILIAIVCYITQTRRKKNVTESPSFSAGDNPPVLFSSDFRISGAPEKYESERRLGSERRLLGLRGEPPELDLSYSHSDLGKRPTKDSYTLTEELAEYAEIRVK
The assay is described as follows: Binding affinity to human MAG by surface plasmon resonance assay. A general note: Surface plasmon resonance follows binding to a sensor surface in real time, without labels.

Assay [3] is filed under the species Homo sapiens. The assay is described as follows: Selectivity index, ratio of Kd for human MAG to Kd for human CD22.

For `O=C(Cc1ccc(-c2ccc(O)cc2)cc1)NC[C@@H](O)[C@@H](O)[C@@H]1O[C@](C(=O)O)(n2cc(CC3CCCCC3)nn2)C[C@H](O)[C@H]1NC(=O)CO`, the Kd in assay [1] was found to be 0.766 µM.
On the same count and under the same terms, as for `O=C(Cc1ccc(-c2ccc(O)cc2)cc1)NC[C@@H](O)[C@@H](O)[C@@H]1O[C@](C(=O)O)(n2cc(Cc3ccccc3)nn2)C[C@H](O)[C@H]1NC(=O)CO`, the figure is 0.952 µM; as for `C#Cc1ccc(CO[C@]2(C(=O)O)C[C@H](O)[C@@H](NC(=O)CO)[C@H]([C@H](O)[C@H](O)CNC(=O)Cc3ccc(-c4ccc(O)cc4)cc3)O2)cc1`, 0.628 µM.
Consider `O=C(Cc1ccc(-c2ccc(O)cc2)cc1)NC[C@@H](O)[C@@H](O)[C@@H]1OC(OCc2ccccc2)(C(=O)O)CC(O)[C@H]1NC(=O)CO` (single isomer, unassigned), for which the values for the Kd in assay [1] and in assay [2] were 0.458 µM and 56.4 µM, respectively. The Selectivity Index in assay [3] was found to be 123.
As to `O=C(Cc1ccc(-c2ccc(O)cc2)cc1)NC[C@@H](O)[C@@H](O)[C@@H]1O[C@](C(=O)O)(n2cc(-c3ccccc3)nn2)C[C@H](O)[C@H]1NC(=O)CO`, the results for the Kd in assay [1] and in assay [2] were 0.335 µM and 30.7 µM, respectively. Moreover, the Selectivity Index in assay [3] was 91.6.
On to `O=C(Cc1ccc(-c2ccc(O)cc2)cc1)NC[C@@H](O)[C@@H](O)[C@@H]1O[C@](C(=O)O)(n2cc(-c3ccc(-c4ccccc4)cc3)nn2)C[C@H](O)[C@H]1NC(=O)CO`, for which, in assay [1], the Kd was found to be 0.62 µM.
The same measure, in the same setting: with `O=C(CCCC[C@H]1SC[C@H]2NC(=O)N[C@H]21)NCCOCCOCCOCCn1cc(-c2ccc(CO[C@]3(C(=O)O)C[C@H](O)[C@@H](NC(=O)CO)[C@H]([C@H](O)[C@H](O)CNC(=O)Cc4ccc(-c5ccc(O)cc5)cc4)O3)cc2)nn1` the figure was 0.74 µM.
Regarding `O=C(Cc1ccc(-c2ccc(O)cc2)cc1)NC[C@@H](O)[C@@H](O)[C@@H]1O[C@](C(=O)O)(n2cc(COC3CCCCC3)nn2)C[C@H](O)[C@H]1NC(=O)CO`, in assay [1], the Kd amounted to 0.86 µM.

In general, Kd refers to the concentration at which binding is half-saturated.

(Values after ChEMBL document CHEMBL4706582, “Design, synthesis and molecular docking study of α-triazolylsialosides as non-hydrolyzable and potent CD22 ligands” (Eur J Med Chem, 2020).)
